# Measured values published in patent US20240115549A1, “TREATMENT OF MENTAL DISORDERS” (GH Research Ireland Limited, priority 2022, published 2024).
# “And” between values parts separate entries of the source, which are not always exact repeats. Identical values can stand only once. “Also recorded” adds a separate entry of the source.
# Tested on: patients with postpartum depression (PPD)
# Test: Clinical trial of inhaled 5-MeO-DMT in patients with postpartum depression
# Type: in vivo, human
# Conditions: individual PPD patient
# Protocol: The single-arm, open-label clinical trial will involve 15 adult female patients with clinically diagnosed postpartum depression (PPD).
# The second dose (12 mg) will only be administered if: • a. A peak experience (total score of 275) has not been achieved following the 6 mg dose, and • b. The 6 mg dose was safe and well-tolerated according to the investigator, • c. Any psychoactive effects (PsE) of the prior dose have subsided, and • d. Pre-dose vital parameters and forced expiratory volume in one second (FEV1) are in normal range, or if outside of the normal range, are not clinically significant according to the investigator. • 3. Similarly, a third dose (18 mg) will only be administered if: • a. A peak experience (total score of 275) has not been achieved following the 12 mg dose, and • b. The 12 mg dose was safe and well-tolerated according to the investigator, and • c. Any PsE of the prior dose have subsided, and • d. Pre-dose vital parameters and forced expiratory volume in one second (FEV1) are in normal range, or if outside of the normal range, are not clinically significant according to the investigator.
# The patients will be assessed for a peak psychedelic experience (based on a patient-scored visual analogue scale, the PE scale), sedation, and other endpoints after dosing. Follow-up visits are planned for Day 1, and Day 7 after the dosing day.
# The following criteria must be met by all patients considered for clinical trial participation: • 1. Is female and in the age range between 18 and 45 years (inclusive) at screening. • 2. Has a body mass index (BMI) in the range of 18.5 and 35 kg/m^2 (inclusive) at screening. • 3. Meets the trial criteria for PPD as assessed by a trial psychiatrist or registered psychologist: • a. Diagnosis of Major Depressive Disorder without psychotic features, confirmed by the Mini-International Neuropsychiatric Interview (MINI), with peri-partum onset that began no earlier than gestation and no later than the first 4 weeks postpartum. • b. Has a Montgomery-Åsberg Depression Rating Scale (MADRS) total score of equal to or greater than 28 at screening and pre-dose on Day 0. • 6. […] Patients must have a negative pregnancy test at screening and on the pre-test day (Day −1). • 5. Is willing to delay start of other antidepressant or anxiety medication until after the end of the trial at Day 7 and agrees to keep any psychotherapy unchanged during the trial.
# A potential patient who meets any of the following key exclusion criteria will be excluded from participation in this trial: • 1. Has, based on history, psychiatric assessment, and evaluation of the MINI, a current or prior diagnosis of bipolar disorder, a manic or hypomanic episode, a psychotic disorder, Major Depressive Disorder (MDD) or other mood disorder with psychotic features, obsessive compulsive disorder, post-traumatic stress disorder (PTSD), autism spectrum disorder, borderline personality disorder, schizophrenia, delusional disorder, paranoid personality disorder, schizoaffective disorder, clinically significant intellectual disability, or any other psychiatric comorbidity that renders the patient unsuitable for the trial according to the investigator's judgment. • 2. Has one or more first or second degree relatives with a current or previously diagnosed bipolar disorder, psychotic disorder or other mood disorder (including MDD) with psychotic features. • 3. Is in the judgement of a trial psychiatrist or registered psychologist, at significant risk for suicide based on history, psychiatric assessment, and evaluation of suicidal ideation and suicidal behaviour based on the Columbia-Suicide Severity Rating Scale (C-SSRS). • 4. Has taken anti-depressive medication within 14 days or 5 half-lives (whichever is longer) prior to dosing (exception: within the last 5 weeks in the case of fluoxetine). • 5.
compound,measurement,setting,value
COc1ccc2[nH]cc(CCN(C)C)c2c1 [5-MeO-DMT],Reported adverse events,,"mild, short-lasting and resolved spontaneously"
same,Standard criteria for MADRS response (>=50% improvement) and remission (total <=10),,fulfilled
same,Tolerability of inhalation procedure / regimen,6 mg then 12 mg,well tolerated with no inhalation-related adverse events; also recorded: well tolerated
same,MADRS apparent sadness improvement,2 h,5 and 4
same,MADRS apparent sadness score,2 h,0
same,MADRS concentration difficulties improvement,2 h,0 and 4
same,MADRS concentration difficulties score,2 h,0
same,MADRS inability to feel improvement,2 h,3 and 4
same,MADRS inability to feel score,2 h,0
same,MADRS inner tension improvement,2 h,5 and 4
same,MADRS inner tension score,2 h,0
same,MADRS lassitude improvement,2 h,3 and 4
same,MADRS lassitude score,2 h,0
same,MADRS pessimistic thoughts improvement,2 h,4
same,MADRS pessimistic thoughts score,2 h,0
same,MADRS reduced appetite improvement,2 h,0 and 6
same,MADRS reduced appetite score,2 h,0
same,MADRS reduced sleep improvement,2 h,0
same,MADRS reported sadness improvement,2 h,4 and 5
same,MADRS reported sadness score,2 h,0
same,MADRS suicidal thoughts improvement,2 h,0 and 1
same,MADRS suicidal thoughts score,2 h,0
same,MADRS reduced sleep score,2 h (baseline carried forward),5
same,BPRS anxiety improvement,Day 1,6 and 5
same,BPRS anxiety score,Day 1,1
same,BPRS blunted affect improvement,Day 1,0 and 4
same,BPRS blunted affect score,Day 1,1
same,BPRS conceptual disorganization improvement,Day 1,0 and 3
same,BPRS conceptual disorganization score,Day 1,1
same,BPRS depressive mood improvement,Day 1,5 and 4
same,BPRS depressive mood score,Day 1,1
same,BPRS disorientation improvement,Day 1,0
same,BPRS disorientation score,Day 1,1
same,BPRS emotional withdrawal improvement,Day 1,4 and 5
same,BPRS emotional withdrawal score,Day 1,1
same,BPRS excitement improvement,Day 1,1 and 0
same,BPRS excitement score,Day 1,1
same,BPRS grandiosity improvement,Day 1,0
same,BPRS grandiosity score,Day 1,1
same,BPRS guilt feelings improvement,Day 1,5
same,BPRS guilt feelings score,Day 1,1
same,BPRS hallucinatory behaviour improvement,Day 1,0
same,BPRS hallucinatory behaviour score,Day 1,1
same,BPRS hostility improvement,Day 1,0 and 3
same,BPRS hostility score,Day 1,1
same,BPRS mannerisms and posturing improvement,Day 1,0
same,BPRS mannerisms and posturing score,Day 1,1
same,BPRS motor retardation improvement,Day 1,0 and 2
same,BPRS motor retardation score,Day 1,1
same,BPRS somatic concern improvement,Day 1,5 and 0
same,BPRS somatic concern score,Day 1,1
same,BPRS suspiciousness improvement,Day 1,0
same,BPRS suspiciousness score,Day 1,1
same,BPRS tension improvement,Day 1,5 and 3
same,BPRS tension score,Day 1,1
same,BPRS uncooperativeness improvement,Day 1,0
same,BPRS uncooperativeness score,Day 1,1
same,BPRS unusual thought content improvement,Day 1,0
same,BPRS unusual thought content score,Day 1,1
same,MADRS apparent sadness improvement,Day 1,5 and 4
same,MADRS apparent sadness score,Day 1,0
same,MADRS concentration difficulties improvement,Day 1,0 and 4
same,MADRS concentration difficulties score,Day 1,0
same,MADRS inability to feel improvement,Day 1,3 and 4
same,MADRS inability to feel score,Day 1,0
same,MADRS inner tension improvement,Day 1,5 and 4
same,MADRS inner tension score,Day 1,0
same,MADRS lassitude improvement,Day 1,3 and 4
same,MADRS lassitude score,Day 1,0
same,MADRS pessimistic thoughts improvement,Day 1,4
same,MADRS pessimistic thoughts score,Day 1,0
same,MADRS reduced appetite improvement,Day 1,0 and 6
same,MADRS reduced appetite score,Day 1,0
same,MADRS reduced sleep improvement,Day 1,5
same,MADRS reduced sleep score,Day 1,0
same,MADRS reported sadness improvement,Day 1,4 and 5
same,MADRS reported sadness score,Day 1,0
same,MADRS suicidal thoughts improvement,Day 1,0 and 1
same,MADRS suicidal thoughts score,Day 1,0
same,BIMF TOTAL score,Day 7,105 and 104
same,BIMF item 1 (I am a good mother) score,Day 7,6 and 5
same,BIMF item 2 (I feel rested) score,Day 7,2 and 4
same,BIMF item 3 (comfortable with the way I've chosen to feed my baby) score,Day 7,6
same,BIMF item 4 (My baby and I understand each other) score,Day 7,5 and 6
same,BIMF item 5 (able to relax and enjoy time with my baby) score,Day 7,6
same,BIMF item 6 (people I can trust to care for my baby when I need a break) score,Day 7,6 and 5
same,BIMF item 8 (getting enough adult interaction) score,Day 7,6 and 4
same,BIMF item 9 (getting enough encouragement from other people) score,Day 7,6 and 5
same,BIMF item 10 (I trust my own feelings (instincts)) score,Day 7,6
same,BIMF item 11 (a little time each week to do something for myself) score,Day 7,6 and 4
same,BIMF item 12 (taking good care of my baby's physical needs) score,Day 7,6
same,BIMF item 13 (taking good care of my physical needs) score,Day 7,5
same,BIMF item 14 (good decisions about my baby's health and well being) score,Day 7,6
same,BIMF item 15 (My baby and I are getting into a routine) score,Day 7,6 and 5
same,BIMF item 16 (I worry about how other people judge me) score,Day 7,5
same,BIMF item 17 (able to take care of my baby and my other responsibilities) score,Day 7,5
same,BIMF item 18 (Anxiety or worry often interferes with my mothering ability) score,Day 7,5
same,BIMF item 19 (getting better at taking care of my baby) score,Day 7,1 and 6
same,BIMF item 20 (satisfied with the job I am doing as a new mother) score,Day 7,5
same,"BIMF total score improvement, percent",Day 7,14% and over 40%
same,BPRS anxiety improvement,Day 7,6 and 5
same,BPRS anxiety score,Day 7,1
same,BPRS blunted affect improvement,Day 7,0 and 4
same,BPRS blunted affect score,Day 7,1
same,BPRS conceptual disorganization improvement,Day 7,0 and 3
same,BPRS conceptual disorganization score,Day 7,1
same,BPRS depressive mood improvement,Day 7,5 and 4
same,BPRS depressive mood score,Day 7,1
same,BPRS disorientation improvement,Day 7,0
same,BPRS disorientation score,Day 7,1
same,BPRS emotional withdrawal improvement,Day 7,4 and 5
same,BPRS emotional withdrawal score,Day 7,1
same,BPRS excitement improvement,Day 7,1 and 0
same,BPRS excitement score,Day 7,1
same,BPRS grandiosity improvement,Day 7,0
same,BPRS grandiosity score,Day 7,1
same,BPRS guilt feelings improvement,Day 7,5
same,BPRS guilt feelings score,Day 7,1
same,BPRS hallucinatory behaviour improvement,Day 7,0
same,BPRS hallucinatory behaviour score,Day 7,1
same,BPRS hostility improvement,Day 7,0 and 3
same,BPRS hostility score,Day 7,1
same,BPRS mannerisms and posturing improvement,Day 7,0
same,BPRS mannerisms and posturing score,Day 7,1
same,BPRS motor retardation improvement,Day 7,0 and 2
same,BPRS motor retardation score,Day 7,1
same,BPRS somatic concern improvement,Day 7,5 and 0
same,BPRS somatic concern score,Day 7,1
same,BPRS suspiciousness improvement,Day 7,0
same,BPRS suspiciousness score,Day 7,1
same,BPRS tension improvement,Day 7,5 and 3
same,BPRS tension score,Day 7,1
same,BPRS uncooperativeness improvement,Day 7,0
same,BPRS uncooperativeness score,Day 7,1
same,BPRS unusual thought content improvement,Day 7,0
same,BPRS unusual thought content score,Day 7,1
same,MADRS apparent sadness improvement,Day 7,5 and 4
same,MADRS apparent sadness score,Day 7,0
same,MADRS concentration difficulties improvement,Day 7,0 and 4
same,MADRS concentration difficulties score,Day 7,0
same,MADRS inability to feel improvement,Day 7,3 and 4
same,MADRS inability to feel score,Day 7,0
same,MADRS inner tension improvement,Day 7,4
same,MADRS inner tension score,Day 7,1 and 0
same,MADRS lassitude improvement,Day 7,3 and 4
same,MADRS lassitude score,Day 7,0
same,MADRS pessimistic thoughts improvement,Day 7,4
same,MADRS pessimistic thoughts score,Day 7,0
same,MADRS reduced appetite improvement,Day 7,0 and 6
same,MADRS reduced appetite score,Day 7,0
same,MADRS reduced sleep improvement,Day 7,5
same,MADRS reduced sleep score,Day 7,0
same,MADRS reported sadness improvement,Day 7,4 and 5
same,MADRS reported sadness score,Day 7,0
same,MADRS suicidal thoughts improvement,Day 7,0 and 1
same,MADRS suicidal thoughts score,Day 7,0
same,Total MADRS improvement,Day 7,41
same,Total MADRS score,Day 7,0
same,BIMF TOTAL Δ,Day 7 vs Day 0,13 and 45
same,BIMF domain Adjustment Δ,Day 7 vs Day 0,1 and 9
same,BIMF domain Infant Care Δ,Day 7 vs Day 0,0
same,BIMF domain Management Δ,Day 7 vs Day 0,5 and 13
same,BIMF domain Mother-Child Interaction Δ,Day 7 vs Day 0,2 and 7
same,BIMF domain Psychological Well-being Δ,Day 7 vs Day 0,9 and 27
same,BIMF domain Self-Care Δ,Day 7 vs Day 0,4 and 10
same,BIMF domain Social Support % Improvement,Day 7 vs Day 0,approx. 27% and 27%
same,BIMF domain Social Support Δ,Day 7 vs Day 0,1 and 3
same,BIMF item 1 (I am a good mother) Δ,Day 7 vs Day 0,0 and 1
same,BIMF item 2 (I feel rested) Δ,Day 7 vs Day 0,2 and 4
same,BIMF item 3 (comfortable with the way I've chosen to feed my baby) Δ,Day 7 vs Day 0,0 and 1
same,BIMF item 4 (My baby and I understand each other) Δ,Day 7 vs Day 0,0 and 1
same,BIMF item 5 (able to relax and enjoy time with my baby) Δ,Day 7 vs Day 0,1 and 5
same,BIMF item 6 (people I can trust to care for my baby when I need a break) Δ,Day 7 vs Day 0,0
same,BIMF item 8 (getting enough adult interaction) Δ,Day 7 vs Day 0,0 and 1
same,BIMF item 9 (getting enough encouragement from other people) Δ,Day 7 vs Day 0,1 and 2
same,BIMF item 10 (I trust my own feelings (instincts)) Δ,Day 7 vs Day 0,1 and 2
same,BIMF item 11 (a little time each week to do something for myself) Δ,Day 7 vs Day 0,1 and 2
same,BIMF item 12 (taking good care of my baby's physical needs) Δ,Day 7 vs Day 0,0
same,BIMF item 13 (taking good care of my physical needs) Δ,Day 7 vs Day 0,1 and 4
same,BIMF item 14 (good decisions about my baby's health and well being) Δ,Day 7 vs Day 0,0
same,BIMF item 15 (My baby and I are getting into a routine) Δ,Day 7 vs Day 0,1
same,BIMF item 16 (I worry about how other people judge me) Δ,Day 7 vs Day 0,2 and 4
same,BIMF item 17 (able to take care of my baby and my other responsibilities) Δ,Day 7 vs Day 0,0 and 3
same,BIMF item 18 (Anxiety or worry often interferes with my mothering ability) Δ,Day 7 vs Day 0,3 and 5
same,BIMF item 19 (getting better at taking care of my baby) Δ,Day 7 vs Day 0,1 and 6
same,BIMF item 20 (satisfied with the job I am doing as a new mother) Δ,Day 7 vs Day 0,−1 and 4
same,BPRS anxiety improvement,discharge,6 and 5
same,BPRS anxiety score,discharge,1
same,BPRS blunted affect improvement,discharge,0 and 4
same,BPRS blunted affect score,discharge,1
same,BPRS conceptual disorganization improvement,discharge,0 and 3
same,BPRS conceptual disorganization score,discharge,1
same,BPRS depressive mood improvement,discharge,5 and 4
same,BPRS depressive mood score,discharge,1
same,BPRS disorientation improvement,discharge,0
same,BPRS disorientation score,discharge,1
same,BPRS emotional withdrawal improvement,discharge,4 and 5
same,BPRS emotional withdrawal score,discharge,1
same,BPRS excitement improvement,discharge,1 and 0
same,BPRS excitement score,discharge,1
same,BPRS grandiosity improvement,discharge,0
same,BPRS grandiosity score,discharge,1
same,BPRS guilt feelings improvement,discharge,5
same,BPRS guilt feelings score,discharge,1
same,BPRS hallucinatory behaviour improvement,discharge,0
same,BPRS hallucinatory behaviour score,discharge,1
same,BPRS hostility improvement,discharge,0 and 3
same,BPRS hostility score,discharge,1
same,BPRS mannerisms and posturing improvement,discharge,0
same,BPRS mannerisms and posturing score,discharge,1
same,BPRS motor retardation improvement,discharge,0 and 2
same,BPRS motor retardation score,discharge,1
same,BPRS somatic concern improvement,discharge,5 and 0
same,BPRS somatic concern score,discharge,1
same,BPRS suspiciousness improvement,discharge,0
same,BPRS suspiciousness score,discharge,1
same,BPRS tension improvement,discharge,3
same,BPRS tension score,discharge,1
same,BPRS uncooperativeness improvement,discharge,0
same,BPRS uncooperativeness score,discharge,1
same,BPRS unusual thought content improvement,discharge,0
same,BPRS unusual thought content score,discharge,1
